Measured values reported in publication PMC7087839 (Chemistry of Natural Compounds, 2018).

Legend:
Format in all cases: cell-based
[1] = tested on: Polio virus (strain Type 3, WM-3)
[2] = tested on: SARS corona virus (strain Urbani)
[3] = tested on: Rift Valley fever virus (strain MP-12)
[4] = tested on: Tacaribe virus (strain TRVL-11573)

Compound	antiviral activity against Polio virus (in words) [1]	activity against Sars corona virus (in words) [2]	activity against Rift valley fever virus (in words) [3]	activity against Takaribe virus (in words) [4]
C[C@]12CC[C@H](OC(=O)Cc3ccccc3)C[C@@H]1CC[C@@H]1[C@@H]2CC[C@]2(C)C(=NNC(=O)c3cccnc3)CC[C@@H]12 [Compound 5, 3 β-Phenylacetoxy-5α-androstan-17-one Nicotinoylhydrazone]	moderate	weakly active	weakly active	weak activity
CC(=NNc1ccc([N+](=O)[O-])cc1)C1=CC[C@H]2[C@@H]3CC[C@H]4C[C@@H](O)CC[C@]4(C)[C@H]3CC[C@]12C [Compound 12, 5′-preg-16-en-3β-ol-20-one p-nitrophenylhydrazone]	moderate	–	weakly active	–
C[C@]12CC[C@H](OC(=O)Cc3ccccc3)C[C@@H]1CC[C@@H]1[C@@H]2CC[C@]2(C)C(=NNC(=O)c3cccc([N+](=O)[O-])c3)CC[C@@H]12 [Compound 4, 3 β -Phenylacetoxy-5α-androstan-17-one m-nitrobenzoylhydrazone]	high	weakly active	–	–
